Laboratory results taken from ChEMBL document CHEMBL1201862, “PubChem BioAssay data set” (2004).
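All cell lines were grown in 96-well plates and treated with compound for 48 hours. GI50 is the concentration that inhibits growth by half.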 Activity calls are given as the source filed them. Cut-off read from the data, not from the text of the source: active = GI50 up to about 1.1 µM and inactive = higher.

Legend:
Assay in all cases: inhibition of tumour cell growth, NCI panel, 48 h
ACHN = tested on: ACHN
CAKI-1 = tested on: CAKI-1
DLD-1 = tested on: DLD-1
EKVX = tested on: EKVX
HCT-116 = tested on: HCT-116
HCT-15 = tested on: HCT-15
HOP-62 = tested on: HOP-62
HT-29 = tested on: HT-29
K562 = tested on: K562
KM12 = tested on: KM12
Malme-3M = tested on: Malme-3M
OVCAR-3 = tested on: OVCAR-3
OVCAR-5 = tested on: OVCAR-5
OVCAR-8 = tested on: OVCAR-8
SF-268 = tested on: SF-268
SK-MEL-5 = tested on: SK-MEL-5
SK-OV-3 = tested on: SK-OV-3
SN12C = tested on: SN12C
UACC-62 = tested on: UACC-62
SK-MEL-28 = tested on: SK-MEL-28

SMILES	GI50 (ACHN)	GI50 (CAKI-1)	GI50 (DLD-1)	GI50 (EKVX)	GI50 (HCT-116)	GI50 (HCT-15) [µM]	GI50 (HOP-62)	GI50 (HT-29)	GI50 (K562)	GI50 (KM12)	GI50 (Malme-3M)	GI50 (OVCAR-3)	GI50 (OVCAR-5)	GI50 (OVCAR-8)	GI50 (SF-268)	GI50 (SK-MEL-5)	GI50 (SK-OV-3)	GI50 (SN12C)	GI50 (UACC-62)	GI50 (SK-MEL-28)
O=C(CC(=O)c1cccc2ccccc12)C(=O)NC1C2CC3CC(C2)CC1C3 (configuration not stated)	> 100 µM (inactive)	> 100 µM (inactive)	> 100 µM (inactive)	> 100 µM (inactive)	> 100 µM (inactive)	> 100	> 100 µM (inactive)	> 100 µM (inactive)	51.4 µM (inactive)	> 100 µM (inactive)	> 100 µM (inactive)	> 100 µM (inactive)	> 100 µM (inactive)	> 100 µM (inactive)	> 100 µM (inactive)	> 100 µM (inactive)	> 100 µM (inactive)	> 100 µM (inactive)	> 100 µM (inactive)	–
COC(=O)C(C)(NC(=O)C(CC(=O)OC(C)(C)C)NC(=O)OC(C)(C)C)c1ccccc1 (configuration not stated)	> 100 µM (inactive)	> 100 µM (inactive)	–	> 100 µM (inactive)	> 100 µM (inactive)	> 100	> 100 µM (inactive)	> 100 µM (inactive)	> 100 µM (inactive)	> 100 µM (inactive)	40 µM (inactive)	49.8 µM (inactive)	> 100 µM (inactive)	> 100 µM (inactive)	7.19 µM (inactive)	68.4 µM (inactive)	> 100 µM (inactive)	> 100 µM (inactive)	> 100 µM (inactive)	> 100 µM (inactive)
CC1(C)C(C#N)=[N+]([O-])C(C)(C)N1O	> 100 µM (inactive)	> 100 µM (inactive)	–	> 100 µM (inactive)	> 100 µM (inactive)	> 100	> 100 µM (inactive)	> 100 µM (inactive)	> 100 µM (inactive)	> 100 µM (inactive)	> 100 µM (inactive)	> 100 µM (inactive)	> 100 µM (inactive)	> 100 µM (inactive)	> 100 µM (inactive)	34.6 µM (inactive)	> 100 µM (inactive)	> 100 µM (inactive)	> 100 µM (inactive)	> 100 µM (inactive)
O=C1OCC(CN2CCC(n3c(=O)[nH]c4ccccc43)CC2)=C1c1ccccc1	29.4 µM (inactive)	22.9 µM (inactive)	–	25.9 µM (inactive)	25.5 µM (inactive)	23	28.5 µM (inactive)	19.7 µM (inactive)	14.9 µM (inactive)	16.3 µM (inactive)	22.8 µM (inactive)	24.7 µM (inactive)	41 µM (inactive)	17.1 µM (inactive)	28.1 µM (inactive)	15.3 µM (inactive)	37.2 µM (inactive)	22 µM (inactive)	12.6 µM (inactive)	23.4 µM (inactive)
COc1ccc(C2S/C(=C\c3ccc([N+](=O)[O-])cc3)C(=O)N2NC(=O)Cc2ccccc2)cc1 (configuration not stated)	> 100 µM (inactive)	> 100 µM (inactive)	> 100 µM (inactive)	–	66.4 µM (inactive)	79.8	> 100 µM (inactive)	> 100 µM (inactive)	> 100 µM (inactive)	> 100 µM (inactive)	> 100 µM (inactive)	–	> 100 µM (inactive)	> 100 µM (inactive)	> 100 µM (inactive)	> 100 µM (inactive)	> 100 µM (inactive)	> 100 µM (inactive)	85.9 µM (inactive)	> 100 µM (inactive)
COc1ccc(C2C3=C(COC3=O)OC(C)(C)Oc3cc4c(cc32)OCO4)cc1OC (configuration not stated)	51.5 µM (inactive)	43.6 µM (inactive)	–	28.5 µM (inactive)	34.6 µM (inactive)	38.5	63.5 µM (inactive)	39.4 µM (inactive)	30.8 µM (inactive)	24 µM (inactive)	29.7 µM (inactive)	33.2 µM (inactive)	> 77.8 µM (inactive)	46.1 µM (inactive)	21.1 µM (inactive)	30.3 µM (inactive)	50.5 µM (inactive)	51.9 µM (inactive)	34 µM (inactive)	53.2 µM (inactive)
O=[N+]([O-])c1ccc2c(c1)C1=NN(c3ccccc3)C(c3ccccc3Br)C1CCC2 (configuration not stated)	22.8 µM (inactive)	23.4 µM (inactive)	–	20.5 µM (inactive)	12.4 µM (inactive)	13.3	43.6 µM (inactive)	16.1 µM (inactive)	4.53 µM (inactive)	16.9 µM (inactive)	24.8 µM (inactive)	16.2 µM (inactive)	> 50 µM (inactive)	22.2 µM (inactive)	21.9 µM (inactive)	15.4 µM (inactive)	> 50 µM (inactive)	24.6 µM (inactive)	9.62 µM (inactive)	21.1 µM (inactive)
